Source: the NIST ThermoML archive (doi:10.1021/acs.jced.7b00429)

Experiment: xn = mol fraction of the nth substance listed
Details: 100 kPa, Liquid; for viscosity: Falling or rolling sphere viscometry; for speed of sound: Frequency=3 MHz, Single path-length method; for mass density: Vibrating tube method

C[S+](C)[O-] [dimethyl sulfoxide] + CC#N
Details | mass density [kg/m3] | speed of sound [m/s] | viscosity [mPa·s]
298.15 K, x1 = 0.0995 | 820.43 | 1299.5 | 0.42
298.15 K, x1 = 0.2061 | 862.88 | 1322.6 | 0.52
298.15 K, x1 = 0.2936 | 896.29 | 1346.2 | 0.57
298.15 K, x1 = 0.4055 | 935.15 | 1372 | 0.72
298.15 K, x1 = 0.5051 | 966.82 | 1395.1 | 0.86
298.15 K, x1 = 0.6001 | 994.77 | 1415.8 | 1.06
298.15 K, x1 = 0.7006 | 1022.53 | 1439.2 | 1.27
298.15 K, x1 = 0.8072 | 1050.32 | 1460.8 | 1.54
298.15 K, x1 = 0.8947 | 1071.95 | 1480.9 | 1.76
298.15 K, x1 = 1 | 1095.62 | 1490.5 | 2.03
303.15 K, x1 = 0.0995 | 815.06 | 1280.1 | 0.4
303.15 K, x1 = 0.2061 | 857.6 | 1303.8 | 0.49
303.15 K, x1 = 0.2936 | 891.05 | 1327.8 | 0.53
303.15 K, x1 = 0.4055 | 929.99 | 1354.1 | 0.67
303.15 K, x1 = 0.5051 | 961.71 | 1377.5 | 0.81
303.15 K, x1 = 0.6001 | 989.72 | 1398.5 | 0.97
303.15 K, x1 = 0.7006 | 1017.55 | 1422.2 | 1.17
303.15 K, x1 = 0.8072 | 1045.34 | 1443.9 | 1.42
303.15 K, x1 = 0.8947 | 1066.98 | 1464 | 1.6
303.15 K, x1 = 1 | 1090.62 | 1473.6 | 1.84
308.15 K, x1 = 0.0995 | 809.67 | 1260.6 | 0.39
308.15 K, x1 = 0.2061 | 852.28 | 1285 | 0.46
308.15 K, x1 = 0.2936 | 885.81 | 1309.9 | 0.52
308.15 K, x1 = 0.4055 | 924.82 | 1336.2 | 0.64
308.15 K, x1 = 0.5051 | 956.58 | 1360 | 0.75
308.15 K, x1 = 0.6001 | 984.67 | 1381.3 | 0.91
308.15 K, x1 = 0.7006 | 1012.57 | 1405.2 | 1.08
308.15 K, x1 = 0.8072 | 1040.36 | 1427 | 1.29
308.15 K, x1 = 0.8947 | 1062.01 | 1447.2 | 1.47
308.15 K, x1 = 1 | 1085.61 | 1456.8 | 1.67
313.15 K, x1 = 0.0995 | 804.26 | 1241.2 | 0.37
313.15 K, x1 = 0.2061 | 846.95 | 1266.1 | 0.44
313.15 K, x1 = 0.2936 | 880.52 | 1291 | 0.49
313.15 K, x1 = 0.4055 | 919.62 | 1318.8 | 0.6
313.15 K, x1 = 0.5051 | 951.43 | 1342.5 | 0.71
313.15 K, x1 = 0.6001 | 979.59 | 1364.1 | 0.85
313.15 K, x1 = 0.7006 | 1007.58 | 1388 | 1
313.15 K, x1 = 0.8072 | 1035.36 | 1410.3 | 1.19
313.15 K, x1 = 0.8947 | 1057.03 | 1431 | 1.35
313.15 K, x1 = 1 | 1080.6 | 1440 | 1.53
318.15 K, x1 = 0.0995 | 798.81 | 1221.8 | 0.35
318.15 K, x1 = 0.2061 | 841.59 | 1247.4 | 0.42
318.15 K, x1 = 0.2936 | 875.23 | 1272.7 | 0.47
318.15 K, x1 = 0.4055 | 914.41 | 1300.5 | 0.57
318.15 K, x1 = 0.5051 | 946.27 | 1325 | 0.67
318.15 K, x1 = 0.6001 | 974.52 | 1346.9 | 0.79
318.15 K, x1 = 0.7006 | 1002.73 | 1371.2 | 0.94
318.15 K, x1 = 0.8072 | 1030.38 | 1393.5 | 1.1
318.15 K, x1 = 0.8947 | 1052.04 | 1413.8 | 1.24
318.15 K, x1 = 1 | 1075.6 | 1423.3 | 1.41
323.15 K, x1 = 0.0995 | 793.34 | 1202.4 | 0.34
323.15 K, x1 = 0.2061 | 836.19 | 1228.6 | 0.4
323.15 K, x1 = 0.2936 | 869.91 | 1254.3 | 0.45
323.15 K, x1 = 0.4055 | 909.18 | 1282.7 | 0.54
323.15 K, x1 = 0.5051 | 941.1 | 1307.6 | 0.63
323.15 K, x1 = 0.6001 | 969.42 | 1329.7 | 0.75
323.15 K, x1 = 0.7006 | 997.71 | 1354.2 | 0.87
323.15 K, x1 = 0.8072 | 1025.37 | 1376.8 | 1.03
323.15 K, x1 = 0.8947 | 1047.05 | 1397.2 | 1.15
323.15 K, x1 = 1 | 1070.66 | 1406.7 | 1.3
